Laboratory results as given in ChEMBL document CHEMBL3871295, “N-Propargylpiperidines with naphthalene-2-carboxamide or naphthalene-2-sulfonamide moieties: Potential multifunctional anti-Alzheimer's agents” (Bioorg Med Chem, 2017).
The source made the active and inactive calls. The calls are words filed in the database; no cut-off is given here.

Columns and labels:
[1] = target: T1, Amine oxidase [flavin-containing] B (Homo sapiens, UniProt P27338); assay: biochemical; format: cell-based
T1 sequence (P27338 whole entry): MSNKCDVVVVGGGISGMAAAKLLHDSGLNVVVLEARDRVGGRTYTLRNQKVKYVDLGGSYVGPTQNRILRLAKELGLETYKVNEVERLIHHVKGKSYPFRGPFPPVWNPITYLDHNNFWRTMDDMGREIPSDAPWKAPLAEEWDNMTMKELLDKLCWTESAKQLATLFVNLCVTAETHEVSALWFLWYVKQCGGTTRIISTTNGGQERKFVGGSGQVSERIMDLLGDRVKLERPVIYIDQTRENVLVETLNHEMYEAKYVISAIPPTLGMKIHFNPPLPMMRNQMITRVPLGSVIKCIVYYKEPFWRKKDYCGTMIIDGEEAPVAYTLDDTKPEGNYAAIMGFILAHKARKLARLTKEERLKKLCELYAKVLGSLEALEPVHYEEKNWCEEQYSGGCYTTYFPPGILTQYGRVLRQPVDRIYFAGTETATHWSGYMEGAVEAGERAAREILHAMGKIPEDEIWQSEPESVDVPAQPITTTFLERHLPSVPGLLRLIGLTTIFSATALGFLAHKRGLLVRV

Homo sapiens = organism: Homo sapiens; assay: Selectivity ratio of IC50 for human recombinant microsomal MAO-A expressed in baculovirus-infected insect cells to IC50 for human recombinant microsomal MAO-B expressed in baculovirus-infected insect cells
[2] = target: Amyloid-beta precursor protein (Homo sapiens) (UniProt P05067); assay: Inhibition of HFIP-pretreated recombinant human amyloid beta (1 to 42) self-induced aggregation at 10 uM measured after 20 hrs for every 300 secs by thioflavin-T based fluorometric assay relative to control
Amyloid-beta precursor protein (Homo sapiens), sequence (P05067 whole entry): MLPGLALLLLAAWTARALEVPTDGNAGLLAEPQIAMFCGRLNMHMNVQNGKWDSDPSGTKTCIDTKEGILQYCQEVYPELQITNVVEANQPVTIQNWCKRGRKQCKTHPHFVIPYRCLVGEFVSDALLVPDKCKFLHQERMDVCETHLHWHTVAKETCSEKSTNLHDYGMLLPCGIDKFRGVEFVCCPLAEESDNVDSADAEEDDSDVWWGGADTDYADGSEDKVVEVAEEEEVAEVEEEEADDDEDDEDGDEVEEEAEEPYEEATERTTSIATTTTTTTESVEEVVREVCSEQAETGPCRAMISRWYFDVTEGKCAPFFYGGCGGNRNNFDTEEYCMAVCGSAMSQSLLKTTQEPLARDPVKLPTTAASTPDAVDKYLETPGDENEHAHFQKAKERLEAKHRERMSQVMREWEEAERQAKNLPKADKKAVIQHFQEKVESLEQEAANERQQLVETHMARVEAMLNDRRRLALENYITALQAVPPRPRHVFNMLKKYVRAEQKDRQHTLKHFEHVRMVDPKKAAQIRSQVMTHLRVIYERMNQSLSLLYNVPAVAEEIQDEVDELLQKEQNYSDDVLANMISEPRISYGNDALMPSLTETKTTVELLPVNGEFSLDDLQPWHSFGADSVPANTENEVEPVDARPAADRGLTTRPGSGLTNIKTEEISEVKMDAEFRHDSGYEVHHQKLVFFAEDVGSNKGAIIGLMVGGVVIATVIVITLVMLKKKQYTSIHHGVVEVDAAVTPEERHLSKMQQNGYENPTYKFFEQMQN

Cholinesterase = Cholinesterase (Homo sapiens, UniProt P06276)
Cholinesterase, sequence (P06276 whole entry): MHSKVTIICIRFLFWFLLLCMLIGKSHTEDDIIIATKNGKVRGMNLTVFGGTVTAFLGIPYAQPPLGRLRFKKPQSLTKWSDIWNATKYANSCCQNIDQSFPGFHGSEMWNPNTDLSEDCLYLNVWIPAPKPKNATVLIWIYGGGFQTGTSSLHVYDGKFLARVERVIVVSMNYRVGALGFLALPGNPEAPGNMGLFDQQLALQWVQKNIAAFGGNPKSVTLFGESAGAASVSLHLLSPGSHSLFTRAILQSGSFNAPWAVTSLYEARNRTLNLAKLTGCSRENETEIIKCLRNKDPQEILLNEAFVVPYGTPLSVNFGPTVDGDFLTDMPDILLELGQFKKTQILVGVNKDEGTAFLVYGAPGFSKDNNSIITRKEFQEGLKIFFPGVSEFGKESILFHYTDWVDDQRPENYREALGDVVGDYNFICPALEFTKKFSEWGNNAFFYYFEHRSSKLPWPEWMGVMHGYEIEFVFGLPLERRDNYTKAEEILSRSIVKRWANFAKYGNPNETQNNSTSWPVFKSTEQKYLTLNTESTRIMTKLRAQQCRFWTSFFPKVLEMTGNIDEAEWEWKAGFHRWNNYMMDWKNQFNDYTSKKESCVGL

Acetylcholinesterase = target: T2, Acetylcholinesterase (Mus musculus, UniProt P21836)
T2 sequence (P21836 whole entry): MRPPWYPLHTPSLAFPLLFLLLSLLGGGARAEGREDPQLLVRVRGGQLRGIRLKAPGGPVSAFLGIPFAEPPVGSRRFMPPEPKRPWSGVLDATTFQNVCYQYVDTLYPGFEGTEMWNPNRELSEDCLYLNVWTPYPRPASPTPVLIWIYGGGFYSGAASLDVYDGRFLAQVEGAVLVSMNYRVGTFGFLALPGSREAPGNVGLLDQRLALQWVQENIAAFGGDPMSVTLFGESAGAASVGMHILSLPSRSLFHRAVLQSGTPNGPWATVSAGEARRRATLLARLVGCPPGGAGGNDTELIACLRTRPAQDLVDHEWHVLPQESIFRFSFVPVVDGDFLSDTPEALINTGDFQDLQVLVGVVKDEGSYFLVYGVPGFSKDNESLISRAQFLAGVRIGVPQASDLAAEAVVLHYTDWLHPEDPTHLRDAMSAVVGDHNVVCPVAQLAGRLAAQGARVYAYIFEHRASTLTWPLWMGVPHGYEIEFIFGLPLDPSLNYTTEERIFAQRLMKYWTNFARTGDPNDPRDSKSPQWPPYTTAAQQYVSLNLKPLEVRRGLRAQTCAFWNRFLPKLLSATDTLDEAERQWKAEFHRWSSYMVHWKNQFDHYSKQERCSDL

[3] = target: T3, Amine oxidase [flavin-containing] A (Homo sapiens, UniProt P21397); assay: biochemical
T3 sequence (P21397 whole entry): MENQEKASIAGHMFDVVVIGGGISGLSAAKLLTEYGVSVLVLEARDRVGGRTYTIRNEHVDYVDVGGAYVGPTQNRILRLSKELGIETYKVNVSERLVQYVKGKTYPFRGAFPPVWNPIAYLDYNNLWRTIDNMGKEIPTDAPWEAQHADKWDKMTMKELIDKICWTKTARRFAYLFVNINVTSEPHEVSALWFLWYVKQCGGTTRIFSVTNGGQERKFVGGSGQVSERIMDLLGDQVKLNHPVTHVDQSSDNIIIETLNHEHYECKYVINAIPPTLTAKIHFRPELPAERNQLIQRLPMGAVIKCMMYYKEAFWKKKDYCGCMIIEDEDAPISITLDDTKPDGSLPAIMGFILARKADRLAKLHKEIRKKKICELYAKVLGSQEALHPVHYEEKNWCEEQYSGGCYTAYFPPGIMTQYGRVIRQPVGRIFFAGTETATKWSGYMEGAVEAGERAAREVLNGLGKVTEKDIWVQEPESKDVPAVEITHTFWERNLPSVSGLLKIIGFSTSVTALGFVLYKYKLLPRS

[4] = PAMPA, pH 7.4
[5] = target: T1, Amine oxidase [flavin-containing] B; assay: Irreversible inhibition of human recombinant microsomal MAO-B expressed in baculovirus-infected insect cells at 10 times IC50 preincubated for 15 mins followed by dilution to […] and subsequent addition of p-tyramine hydrochloride substrate measured for 30 mins by amplex red assay relative to control; conditions: 0.5 h
[6] = target: T1, Amine oxidase [flavin-containing] B; assay: Time-dependent inhibition of human recombinant microsomal MAO-B expressed in baculovirus-infected insect cells preincubated for 5 to 30 mins by IC50 shift assay
[7] = Cytotoxicity against human SH-SY5Y cells at 5 uM measured after 48 hrs by MTS assay; format: toxicity, cell-based
[8] = Cytotoxicity against human SH-SY5Y cells measured after 48 hrs by MTS assay; format: toxicity, cell-based; conditions: read-out: LD50
MAO-B = assay: Selectivity index, ratio of LD50 for cytotoxicity against human SH-SY5Y cells to IC50 for human recombinant microsomal MAO-B expressed in baculovirus-infected insect cells; format: toxicity; conditions: read-out: Ratio LD50/IC50
SH-SY5Y [9] = assay: Neuroprotective activity against amyloid beta (1 to 42) induced cell death in human SH-SY5Y cells assessed as cell viability at 5 uM measured after 48 hrs by MTS assay; format: functional, cell-based
BChE = assay: in vitro; conditions: human, SH-SY5Y cells
[10] = Cytotoxicity against human SH-SY5Y cells at […] measured after 48 hrs by MTS assay; format: toxicity, cell-based
SH-SY5Y [11] = assay: Neuroprotective activity against amyloid beta (1 to 42) induced cell death in human SH-SY5Y cells assessed as cell viability at […] measured after 48 hrs by MTS assay; format: functional, cell-based

Row | Compound | IC50 [1] | Ratio IC50 (Homo sapiens) | inhibition [2] | IC50 (Cholinesterase) | IC50 (Acetylcholinesterase) | IC50 [3] | logPeff [4] | inhibition (INH) [5] | TDI [6] | Activity [7] | CC50 at 48 h [8] | selectivity ratio (MAO-B) | Activity (SH-SY5Y [9]) | selectivity ratio (BChE) | Activity [10] | Activity (SH-SY5Y [11])
1 | C#CCN1CCCC(CN(CCCOC)C(=O)c2ccc3ccccc3c2)C1 (centres undefined) | > 100 µM | 1 | < 10% | 8.64 µM | > 100 µM | > 100 µM | – | – | – | – | – | – | – | – | – | –
2 | C#CCN1CCCC(CNS(=O)(=O)c2ccc3ccccc3c2)C1 (centres undefined) | > 100 µM | 1 | < 10% | 1.22 µM | > 100 µM | > 100 µM | – | – | – | – | – | – | – | – | – | –
3 | C#CCN1CCCC(CNC(=O)c2ccc3ccccc3c2)C1 (centres undefined) | 59.3 µM | > 1.69 | < 10% | 23.4 µM | > 100 µM | > 100 µM | – | – | – | – | – | – | – | – | – | –
4 | C#CCN1CCCC(CN(CCOC)C(=O)c2ccc3ccccc3c2)C1 (centres undefined) | > 100 µM | 1 | < 10% | 3.31 µM | > 100 µM | > 100 µM | – | – | – | – | – | – | – | – | – | –
5 | CC(=O)[C@H]1CC[C@H]2[C@@H]3CCC4=CC(=O)CC[C@]4(C)[C@H]3CC[C@]12C [PROGESTERONE] | – | – | – | – | – | – | -4 | – | – | – | – | – | – | – | – | –
6 | C#CCN1CCC(CN(CCOC)S(=O)(=O)c2ccc3ccccc3c2)CC1 | > 100 µM | 1 | < 10% | 0.384 µM | > 100 µM | > 100 µM | – | – | – | – | – | – | – | – | – | –
7 | C#CCN1CCCC(CN(CCOC)S(=O)(=O)c2ccc3ccccc3c2)C1 (centres undefined) | > 100 µM | 1 | < 10% | 0.137 µM | > 100 µM | > 100 µM | – | – | – | – | – | – | – | – | – | –
8 | C#CCN1CCC(CN(CCOC)C(=O)c2ccc3ccccc3c2)CC1 | > 100 µM | 1 | 23.4% | 4.04 µM | > 100 µM | > 100 µM | – | – | – | – | – | – | – | – | – | –
9 | C#CCN1CCC(CN(CCCOC)S(=O)(=O)c2ccc3ccccc3c2)CC1 | > 100 µM | 1 | < 10% | 0.281 µM | > 100 µM | > 100 µM | – | – | – | – | – | – | – | – | – | –
10 | C#CCN1CCC(CNC(=O)c2ccc3ccccc3c2)CC1 | 72.6 µM | > 1.38 | < 10% | 54.4 µM | > 100 µM | > 100 µM | – | – | – | – | – | – | – | – | – | –
11 | C#CCN1CCC(CNS(=O)(=O)c2ccc3ccccc3c2)CC1 | 53.9 µM | > 1.86 | < 10% | 2.6 µM | > 100 µM | > 100 µM | – | > 70% | Active | Non-Toxic | 242 µM | 4 | Active | 90 | – | –
12 | C#CCN1CCCC(CN(CCCOC)S(=O)(=O)c2ccc3ccccc3c2)C1 (centres undefined) | > 100 µM | 1 | < 10% | 0.127 µM | > 100 µM | > 100 µM | – | – | – | – | 48.1 µM | – | – | 375 | Non-Toxic | Active
13 | C#CCN1CCC(CN(CCCOC)C(=O)c2ccc3ccccc3c2)CC1 | > 100 µM | 1 | < 10% | 4.59 µM | > 100 µM | > 100 µM | – | – | – | – | – | – | – | – | – | –
